Here are results for three compounds from patent publication US7279179B2, “Liposome-entrapped topoisomerase inhibitors” (ALZA Corporation, priority 1988, dated 2007).

By Cmax is commonly meant the peak of the concentration-time curve. As usually defined, the clearance is the rate of elimination divided by the concentration.

The nature of data set [1]: Plasma pharmacokinetics of liposome-entrapped and free topotecan in rats. In kind it is in vivo. The note with it: for Vol. Dist. / elimination rate constant: i.v.; for AUC / Cmax / clearance / half-life: rat, plasma, iv; for half-life: read-out: T ½ (converted). As for the experimental part: FIGS. 4A–4B show the plasma concentration of topotecan as a function of time after administration to rats. […] FIG. 4B compares the two forms of the drug at a dosage of 5 mg/kg.

The test system of data set [2] is HT-29 subcutaneous xenograft tumor. In kind it is in vivo.
The nature of the next data set: in vivo. To be noted: rat.
For data set [3], the system named is HT-29 colon cancer xenograft. The experiment in a line: HT-29 xenograft efficacy of liposome-entrapped CKD-602 (Example 5). In kind it is in vivo, mice.
The nature of data set [4]: Plasma pharmacokinetics of liposome-entrapped and free CKD-602 in rats. The note with it: 1 mg/kg.
Where [5] appears, read: 25 mg/kg i.v. days 9, 16, 23, groups of 12 mice.
Where [6] appears, read: 20 mg/kg i.v. days 11, 18, 25, animals/group.

In the case of `CC[C@@]1(O)C(=O)OCc2c1cc1n(c2=O)Cc2cc3c(CN(C)C)c(O)ccc3nc2-1` [free topotecan, 9-dimethyl-aminomethyl-10-hydroxycamptothecin], in data set [1] (Dosage = 2 mg/kg), the “Vol. Dist.” value came to 173 mL, the elimination rate constant was determined as 3.45 h⁻¹, the AUC was determined as 570 ng·h/mL and the concentration peaked (Cmax) at 2890 ng/mL. Also, in data set [1] (Dosage = 2 mg/kg), the clearance was 14.8 mL/min and the half-life is 12 min. In addition, in data set [1] (Dosage = 5 mg/kg), the “Vol. Dist.” value came to 278 mL, the elimination rate constant turned out to be 2.33 h⁻¹, the AUC turned out to be 1570 ng·h/mL and the Cmax was determined as 8230 ng/mL. For the same compound, in data set [1] (Dosage = 5 mg/kg), the clearance was 13.7 mL/min and the half-life was 18 min. The same compound yielded a tumor growth rate in data set [2] (25 mg/kg) of 14.1 mm^3 per day. In data set [2] (25 mg/kg i.v. days 9, 16, 23), the “% T/C Day 29” value worked out at 82.8%, the “% T/C Day 33” value is listed as 79.0% and the “% T/C Day 36” value came to 85.9%. In addition, in data set [2] (setting [5]), the “Complete Remission (number of animals)” value is 0, the “Non-Responsive (number of animals)” value came out at 11 and the “Partial Remission (number of animals)” value was 1.
As to `CC[C@@]1(O)C(=O)OCc2c1cc1n(c2=O)Cc2c-1nc1cc3c(cc1c2CN1CCN(C)CC1)OCCO3` [free MPE-camptothecin, 7-(4-methyl-piperazino-methylene)-10,11-ethylenedioxy-20(S)-camptothecin], the half-life in “in vivo” was ~50 min.
In turn, `CC[C@@]1(O)C(=O)OCc2c1cc1n(c2=O)Cc2c-1nc1ccccc1c2CCNC(C)C` [free CKD602] yielded a tumor growth rate in data set [3] (20 mg/kg) of 15.21 mm^3 per day. In data set [3] (20 mg/kg i.v. days 11, 18, 25), the “% T/C Day 29” value turned out to be 129.1%, the “% T/C Day 33” value was determined as 120.1% and the “% T/C Day 36” value is on record as 99.9%. In data set [3] (setting [6]), the “Complete Remission” value is on record as 0/6, the Non-Responsive is 6/6 and the “Partial Remission” value is recorded as 0/6. Moreover, in data set [4], the AUC worked out at 0.37 µg/mL/h and the calculated half-life is 12 min.
